Consider two molecules from patent US8394963B2, “Process for the preparation of esomeprazole magnesium dihydrate” (Cipla Limited, priority 2007, dated 2013).

The nature of this series: Solubility checked using 0.1 g of the sample at 25-30° C. In kind it is physicochemical. The following applies: for Solubility (volume of solvent): 0.1 g of the sample at 25-30° C. The text has this:
Polymorphs of a compound differ in physical properties such as crystal structure, dissolution and particle size.

Structures are written as SMILES.

As for `COc1ccc2[nH]c(SCc3ncc(C)c(OC)c3C)nc2c1` [Form II, 5-methoxy-2-[[(4-methoxy-3,5-dimethyl-2-pyridinyl)-methyl]thio]-1H-benzimidazole], the “Solubility (volume of solvent)” value stood at 4.6 mL (Acetone), 12.0 mL (Ethyl acetate), 13.0 mL (Isopropyl acetate) and 15.0 mL (Toluene). For the setting “Form II compared with Form I of thio intermediate (compound III)”, the “Solubility, comparison of the polymorphic forms” value is “less soluble than Form I”.

With `COc1ccc2[nH]c(SCc3ncc(C)c(OC)c3C)nc2c1` [Form I, 5-methoxy-2-[[(4-methoxy-3,5-dimethyl-2-pyridinyl)-methyl]thio]-1H-benzimidazole, reference compound], the “Solubility (volume of solvent)” value by setting is: (Acetone) 2.0 mL; (Ethyl acetate) 4.6 mL; (Isopropyl acetate) 10.0 mL; (Toluene) 8.4 mL.
